Test [1] concerns choroidal endothelial cells. The experiment in a line: Ex vivo model of choroidal angiogenesis (choroidal neovascularization). The note with it: 10 μM; for effect on new endothelial cells in choroidal angiogenesis: treatment starts after 7 days of angiogenesis, lasts two days, live/dead staining. It is filed as cell-based. As to the method:
FIG. 2A-E. Comparison of compound 369 with the current anti-angiogenic drug in an ex vivo model of choroidal angiogenesis. A. A schematic diagram of the timeframe of the experiment. […] Treatment lasts for two days before cell death and survival are analyzed. B. Control experiment without any drug treatment at day 7. The white circle in the middle delineates the piece of choroid/RPE that was embedded to initiate neovascularization. C. […] Eylea was added at 10 μM. […] The compound was added at 10 μM. In B-D, green cells are live cells and red cells are dead cells. E. Quantitation of the experiments described in B-D. The amount of new endothelial cells in the untreated control is defined as 100%.

Test [2] relates to tumor endothelial cells (LL/2 lung cancer tumor). The test can be described thus: Lung LL2 ex vivo model of tumor angiogenesis. The settings on record: Mus musculus, Endothelial cell, 48 h, read-out: Cell death. It is filed as cell-based, mouse. In short, it runs like this: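 Read-out is live/dead fluorescence imaging (fluorescein diacetate green, propidium iodide red, 10 min at 37° C) at 2×, taken e.g. 48 h after drug addition. Fragments of mouse LL2 tumor are cultured in Matrigel with endothelial growth medium, usually 4 days, until new endothelial cells grow out, then treated.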

Another test deals with PLXDC1. The test can be described thus: PLXDC1 receptor activation assay (Gfi1b promotor luciferase reporter). It is filed as cell-based. The settings on record: treatment 1 day; basal activity of PLXDC1-expressing cells = 1. The text has this: (§1) FIG. 5A-B show activation of PLXDC1 and PLXDC2 by small molecules. […] All compound treatments were done for 1 day. Basal promotor activity of the PLXDC1-expressing cells is defined as 1.
Background: Reporter assays use an easily measured gene product as a stand-in for the process of interest.

The subject of test [3] is pathogenic blood vessels of the retina. The experiment in a line: Ischemia-induced retinopathy in vivo. Set-up: species or system mouse. The settings on record: subcutaneous injection during return to room air; n=10 retinas. The text has this: A. Upper graph: Schematic diagram of the experimental design for ischemia-induced retinopathy. The high oxygen environment caused blood vessel loss (vaso-obliteration). In room air, loss of vessels triggered abnormal angiogenesis that generated pathogenic blood vessels on the top of the retina (marked in yellow in D). Treatment was applied during the return to room air by subcutaneous injection. […] Red signal is blood vessel marker. C. The same retinas in B with vaso-obliteration areas marked in white color. […] D. The same retinas in B with pathogenic blood vessels marked in yellow color. […] FIG. 7A includes a schematic diagram of the experimental design for ischemia-induced retinopathy. The high oxygen environment caused blood vessel loss (vaso-obliteration). In room air, loss of vessels triggered abnormal angiogenesis that generated pathogenic blood vessels on the top of the retina (marked in yellow in FIG. 7D). Treatment was applied during the return to room air by subcutaneous injection. […] The same retinas in B with vaso-obliteration areas marked in white color (FIG. 7C). […] The same retinas in B with pathogenic blood vessels marked in yellow color (FIG. 7D).

Another test relates to PLXDC2. The experiment in a line: PLXDC2 receptor activation (Gfi1b promotor luciferase reporter). It is filed as cell-based. The settings on record: treatment 1 day.
Source text: as §1

Test [4] has as its system tumor / tumor blood vessels. The experiment in a line: Tumor animal model, bolus IV injection at day 0, tumor growth and morphology. Type of test: in vivo, mouse. The note with it: versus control group.
Source text: Treatment was done at day 0 by bolus IV injection. […] Treatment was done at day 0. […] Treatment was done at day 0.
Test [5] deals with T1, extracellular domain of PLXDC1 (PLXDC1-ECD) (Homo sapiens, UniProt Q8IUK5).
T1 construct: the extracellular domain of PLXDC1 (PLXDC1-ECD)
T1 sequence (Q8IUK5 19-426 limits assumed): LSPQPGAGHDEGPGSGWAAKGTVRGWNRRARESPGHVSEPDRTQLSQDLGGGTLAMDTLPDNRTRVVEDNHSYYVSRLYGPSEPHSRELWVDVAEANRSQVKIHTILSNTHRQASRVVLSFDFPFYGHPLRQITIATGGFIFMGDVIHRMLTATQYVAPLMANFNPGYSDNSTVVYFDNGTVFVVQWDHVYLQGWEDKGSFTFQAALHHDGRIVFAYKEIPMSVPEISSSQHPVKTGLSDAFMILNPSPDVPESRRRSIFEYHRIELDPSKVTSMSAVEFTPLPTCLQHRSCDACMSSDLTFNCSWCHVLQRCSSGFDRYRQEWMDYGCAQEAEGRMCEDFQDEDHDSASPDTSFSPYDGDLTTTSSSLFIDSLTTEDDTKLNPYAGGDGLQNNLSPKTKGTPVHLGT
The test can be described thus: Binding to PLXDC1 extracellular domain by suppression of tryptophan fluorescence. As to the method:
The high affinity interaction between compound 346 (Table 3) and the extracellular domain of PLXDC1 (PLXDC1-ECD). […] Tryptophan fluorescence without the compound added is defined as 1. The estimated Kd value is 50 nM.

Test [6] concerns tumor endothelial cells (CT26.CL25 colon cancer tumor). The experiment in a line: Colon CT26 ex vivo model of tumor angiogenesis. The settings on record: Mus musculus, CT26, 48 h, read-out: Cell death. Type of test: cell-based. The essentials:
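Explant pieces of CT26 tumor (about 0.075 mm^3) were embedded in Matrigel and grown in endothelial growth medium at 37 °C for about 7 days until endothelial outgrowth appeared, then treated. Cell death was read about 48 h after drug addition by fluorescein diacetate (live) and propidium iodide (dead) staining with red/green imaging.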

“Also recorded” adds a separate entry of the source.

Consider “Eylea: "The most commonly used drug for choroidal neovascularization, Eylea, can inhibit choroidal endothelial cell growth (as expected of an antiangiogenesis drug)" [reference compound]”, for which the “effect on new endothelial cells in choroidal angiogenesis” value in test [1] was “can inhibit choroidal endothelial cell growth”.

Consider `CCCCCCCCCCCCCCOc1ccc(S(=O)(=O)c2cnc3ccc([S+](C)[O-])cc3c2N2CCC(N3CCC(N4CCN(CCO)CC4)CC3)CC2)cc1F` (stereo not shown) [compound 369, 2-(4-(1′-(3-((3-fluoro-4-(tetradecyloxy)phenyl)sulfonyl)-6-(methylsulfinyl)quinolin-4-yl)-[1,4′-bipiperidin]-4-yl)piperazin-1-yl)ethanol], for which the cytotoxicity at 20 µM in test [2] is 20%. Further, in test [1], the “effect on new endothelial cells in choroidal angiogenesis” value is listed as “can kill the new endothelial cells in choroidal angiogenesis”. Further, the “effect on healthy tissue (choroid and RPE)” value in test [1] (two days treatment) was “Choroid and RPE are still alive after the treatment; also recorded: without affecting the healthy tissue”.

Turning to `O=c1[nH]cc(F)c(=O)[nH]1` [Fluorouracil, reference compound], the “Gfi1b promotor activity in PLXDC1-expressing cells” value in the test with PLXDC1 is “does not activate this promoter”.

The Kd is the concentration at which binding is half-saturated. On to `CCCCCCCCCCCCCCOc1ccc(S(=O)(=O)c2cnc3ccc([S+](C)[O-])cc3c2N2CCC(N3CCC(N4CCN(C)CC4)CC3)CC2)cc1` (stereo not shown) [compound 346, 4-(4-(4-methylpiperazin-1-yl)-[1,4′-bipiperidin]-1′-yl)-6-(methylsulfinyl)-3-((4-(tetradecyloxy)phenyl)sulfonyl)quinoline], for which the “Gfi1b promotor activity in PLXDC1-expressing cells” value in the test on PLXDC1 was “highly activated the promotor activity in PLXDC1-expressing cells”. In addition, in test [2], the cytotoxicity at 20 µM came to 20%. Moreover, in test [3], the “healthy blood vessels in ischemia-induced retinopathy” value was “improving the amount of healthy blood vessels” and the “pathogenic blood vessels in ischemia-induced retinopathy” value is reported as “specifically suppressed pathogenic blood vessels in vivo without affecting healthy blood vessels; also recorded: highly suppressed pathogenic blood vessels”. Besides, in the test with PLXDC2, the “Gfi1b promotor activity in PLXDC2-expressing cells” value is reported as “activated the promotor activity in PLXDC2-expressing cells”. Moreover, the “tumor growth (shrinkage)” value in test [4] is given as “shrank the tumors significantly”. Besides, the “suppression of endogenous tryptophan fluorescence of PLXDC1-ECD” value in test [5] (different concentrations, fluorescence without compound = 1) is “suppressed the endogenous tryptophan fluorescence of PLXDC1-ECD in a dose-dependent manner”. Also, the Kd in test [5] (estimated from dose-dependent suppression of PLXDC1-ECD tryptophan fluorescence) is 0.05 µM.

Turning to `CCc1ccc(S(=O)(=O)c2cnc3ccc(OC(F)(F)F)cc3c2N(CC)CC)cc1` [compound 81, N,N-diethyl-3-((4-ethylphenyl)sulfonyl)-6-(trifluoromethoxy)quinolin-4-amine], the cytotoxicity at 40 µM in test [2] and in test [6] was 0% in each case.

For the molecule `CCCCCCCOc1ccc(S(=O)(=O)c2cnc3ccc([S+](C)[O-])cc3c2N2CCCN(CCN3CCCCC3)CC2)cc1` (stereo not shown) [compound 255, 3-((4-(heptyloxy)phenyl)sulfonyl)-6-(methylsulfinyl)-4-(4-(2-(piperidin-1-yl)ethyl)-1,4-diazepan-1-yl)quinoline], in test [2], the cytotoxicity at 20 µM came out at 10%. Further, in test [6], the cytotoxicity at 10 µM turned out to be 0%.

Regarding `CCCCCCCCCCCCOc1ccc(S(=O)(=O)c2cnc3ccc([S+](C)[O-])cc3c2N2CCC(N3CCC(N4CCCCC4)CC3)CC2)cc1` (stereo not shown) [compound 342, 4-([1,4′:1′,4″-terpiperidin]-1″-yl)-3-((4-(dodecyloxy)phenyl)sulfonyl)-6-(methylsulfinyl)quinoline], the “Gfi1b promotor activity in PLXDC1-expressing cells” value in the test on PLXDC1 is given as “highly activated the promotor activity in PLXDC1-expressing cells”. Further, the cytotoxicity at 20 µM in test [2] worked out at 60%. Moreover, the “Gfi1b promotor activity in PLXDC2-expressing cells” value in the test with PLXDC2 is on record as “activated the promotor activity in PLXDC2-expressing cells”.

Turning to `COc1ccc(S(=O)(=O)c2cnc3ccc(CC#N)cc3c2NN2CCN(C)CC2)cc1` [compound 99, 2-(3-((4-methoxyphenyl)sulfonyl)-4-((4-methylpiperazin-1-yl)amino)quinolin-6-yl)acetonitrile], the cytotoxicity at 40 µM in test [2] was determined as 10%; in test [6], 0%.

For `CCCCCCCOc1ccc(S(=O)(=O)c2cnc3ccc([S+](C)[O-])cc3c2N2CCC(N3CCCC(O)C3)CC2)cc1` (stereo not shown) [compound 254, 1′-(3-((4-(heptyloxy)phenyl)sulfonyl)-6-(methylsulfinyl)quinolin-4-yl)-[1,4′-bipiperidin]-3-ol], in test [2], the cytotoxicity at 20 µM is 100%. Besides, in test [6], the cytotoxicity at 10 µM was determined as 40%.

For `COc1ccc(S(=O)(=O)c2cnc3ccc(OC(F)(F)F)cc3c2NN2CCN(C)CC2)cc1OC` [compound 88, 3-((3,4-dimethoxyphenyl)sulfonyl)-N-(4-methylpiperazin-1-yl)-6-(trifluoromethoxy)quinolin-4-amine], the cytotoxicity at 40 µM in test [2] is 70%; in test [6], 60%.

On to `CCCCOc1ccc(S(=O)(=O)c2cnc3ccc(C(=O)OCC)cc3c2N2CCCN(C)CC2)cc1` [compound 158, ethyl 3-((4-butoxyphenyl)sulfonyl)-4-(4-methyl-1,4-diazepan-1-yl)quinoline-6-carboxylate], for which the cytotoxicity at 40 µM in test [2] and in test [6] was 100% in each case.

Regarding `CCc1ccc(S(=O)(=O)c2cnc3ccc(CC#N)cc3c2N2CCC(N3CCCCC3)CC2)cc1` [compound 55, 2-(4-([1,4′-bipiperidin]-1′-yl)-3-((4-ethylphenyl)sulfonyl)quinolin-6-yl)acetonitrile], the cytotoxicity at 40 µM turned out to be 70% in test [2] and 50% in test [6].

As for `CCCCCCCOc1ccc(S(=O)(=O)c2cnc3ccc(SC)cc3c2N2CCC(N3CCCCC3)CC2)cc1` [compound 219, 4-([1,4′-bipiperidin]-1′-yl)-3-((4-(heptyloxy)phenyl)sulfonyl)-6-(methylthio)quinoline], the cytotoxicity at 40 µM in test [2] was found to be 60%; in test [6] it was 90%.

In the case of `CCc1ccc(S(=O)(=O)c2cnc3ccc(OC(F)(F)F)cc3c2N2CCC3(CC2)OCCO3)cc1` [compound 52, 8-(3-((4-ethylphenyl)sulfonyl)-6-(trifluoromethoxy)quinolin-4-yl)-1,4-dioxa-8-azaspiro[4.5]decane], the cytotoxicity at 40 µM came to 50% in test [2] and 0% in test [6].

The values are drawn from patent US11884647B2, “Compounds and methods for targeting pathogenic blood vessels” (THE REGENTS OF THE UNIVERSITY OF CALIFORNIA, priority 2019, dated 2024).
